# How the values were obtained:
# [1] = tested on: fasting plasma glucose (∆FPG); assay: PK/PD sigmoid Emax model of dorzagliatin plasma concentration vs ∆FPG; assay type: in vivo, BALB/c nude mice
# Description: To further characterize the pharmacokinetics of the compounds, a two-compartment model with first-order absorption was developed using the Phoenix Model module in Phoenix software. The AIC method was applied to identify the most suitable pharmacokinetic model. This model facilitated the comprehensive evaluation of the pharmacokinetic behavior of the drugs under investigation.
# To evaluate the effect of the test compounds on blood glucose levels, 10 μL of blood was collected from the tail veins of mice at baseline (time 0) and at predetermined time points (0.5, 1, 2, 4, 6, and 8 h) post-administration. Blood glucose levels were measured using a OneTouch Ultra glucometer. Changes in FPG levels over time were monitored and analyzed. ∆FPG was calculated using Equation (5):(5) ∆FPG=FPGcontrol−FPGexp/FPGcontrol×100% where: • FPGexp represents the FPG levels in the dorzagliatin group, dorzagliatin + WX390 group, or the dorzagliatin + BYL719 group. • FPGcontrol represents the FPG levels in the vehicle control group, WX390 group, or BYL719 group.
# A preliminary PK/PD interaction model was developed using plasma concentrations and FPG levels in tumor-bearing mice. The relationship between plasma drug concentrations and FPG reduction was described using the Sigmoid Eₘₐₓ model (Equation (6)):(6) E=E0+Emax×Ce^γ/EC50γ+Ce^γ where: • E represents the mean percent blood glucose reduction. • Cₑ indicates the plasma concentration of the drug that elicits a pharmacodynamic response. • E0 is the baseline drug effect. • Eₘₐₓ represents the maximum potential drug effect. • EC50 is the plasma concentration at which 50% of the maximum drug effect is observed. • γ denotes the Hill coefficient, which reflects the steepness of the concentration-effect curve.
# [2] = tested on: CYP1A2, 2A6, 2C9, 2C19, 2D6, 2E1, CYP3A4/5; design: method as in ref 32 = [32]; 32. Wang J. Zhao Z. Xu W. Hu X. Jin P. First Marketed Glucokinase Activator for Antidiabetic Therapy: Dorzagliatin Chin. Pharm. J. 2024 59 651 656; conditions: in vitro studies; cited from earlier work
# OVCAR3 xenograft tumor = assay: In vivo tumor growth, OVCAR3 subcutaneous xenograft tumor model; design: species or system BALB/c nude mice; conditions: n = 6
# Description: This study, approved by Fudan University Ethics Committee (protocol code: 201904008Z) on 26 April 2019, was conducted in compliance with AAALAC’s International Commission guidelines for laboratory animal evaluation and accreditation. A total of 36 female BALB/c nude mice (6–8 weeks old, weighing 18–20 g) were purchased from Charles River Laboratories (Pinghu, China). The OVCAR3 ovarian cancer cell line (ATCC® HTB-161™) was used to establish human xenografts. OVCAR3 cells (10 × 10^6) suspended in 0.2 mL of Matrigel were subcutaneously inoculated into the dorsal region of each mouse. Tumors were allowed to grow until reaching a volume of ~160 mm^3, typically around 30 days post-inoculation.
# WX390 was prepared in Solvent-1, comprising dimethyl sulfoxide (DMSO): methylcellulose: water at a ratio of 1:1:98 (v/v/v). BYL719 and dorzagliatin were formulated in Solvent-2, consisting of Tween 80: water with 0.5% methylcellulose (MC) solution at a ratio of 0.2:99.8 (v/v). The treatment control was a combination of Solvent-1 and Solvent-2. The test compounds were administered orally as follows: WX390 at 0.2 mg/kg, BYL719 at 25 mg/kg, and dorzagliatin at 10 mg/kg, dissolved in their respective formulations. Due to ethical considerations regarding gavage volume the administration volume across all groups was standardized to 10 μL/g of body weight.
# The experiment involved six treatment groups, each comprising six mice. The groups included: (i) vehicle control, (ii) WX390 (0.2 mg/kg), (iii) BYL719 (25 mg/kg), (iv) dorzagliatin (10 mg/kg), (v) WX390 (0.2 mg/kg) + dorzagliatin (10 mg/kg), and (vi) BYL719 (25 mg/kg) + dorzagliatin (10 mg/kg). All treatments were administered via oral gavage once daily for four weeks. In the combination group of PI3Ki and dorzagliatin, dorzagliatin was administered 30 min prior to PI3Ki.
# Tumor dimensions were measured biweekly using a vernier caliper. Tumor volume was calculated using the formula:(1) V=0.5a×b^2 where: • a represents the longest tumor diameter. • b represents the shortest diameter.
# The antitumor efficacy of each group was evaluated using TGI or T/C. TGI (%) reflects the rate of tumor growth inhibition and is calculated as follows:(2) TGI%=1−Vend−V0exp/Vend−V0control×100% where: • Vend represents mean tumor volume at the end of treatment in the group. • V0 represents mean tumor volume at the start of treatment in the group. • exp represents the treated groups. • control represents the vehicle control group.
# T/C (%) is calculated using the formula:(3) T/C%=TRTV/CRTV×100% where: • TRTV is the Relative Tumor Volume of the treatment group. • CRTV is the Relative Tumor Volume of the negative control group.
# The Relative Tumor Volume (RTV) is calculated based on tumor measurement results using the formula:(4) RTV=Vt/V0 where: • V0 is the mean tumor volume at the time of grouping (day 0). • Vt is the mean tumor volume at a given measurement time.
# TRTV and CRTV are based on data from the same day.
# At the conclusion of the experiment, tumor weights were measured, and the T/C was calculated. Tweight and Cweight represent the tumor weights of the treatment group and the vehicle control group, respectively.
# [3] = E = mean percent blood glucose reduction (∆FPG)
# [4] = based on tumor volume on day 28, vs vehicle
smiles,measurement,setting,value
"CC(C)C[C@@H](C(=O)Nc1ccn(C[C@@H](O)CO)n1)N1CC(Oc2ccccc2Cl)=CC1=O [Dorz, Dorzagliatin]",E0 (baseline drug effect) in PK/PD equation,[1]; [3],10
same,Emax (maximum potential drug effect) in PK/PD equation,[1]; [3],50%
same,EC50 (∆FPG as indicator),"[1]; dorzagliatin plasma concentration giving 50% of maximum effect, per treatment group",0.74 µg/mL
same,Hill coefficient (γ),"[1]; ∆FPG, per treatment group",0.80
same,"inhibition of CYP1A2, 2A6, 2C9, 2C19, 2D6, 2E1, CYP3A4/5",[2],does not inhibit
same,T/C (Relative Tumor Growth Rate),OVCAR3 xenograft tumor; [4],90.81%
same,TGI (Tumor Growth Inhibition),OVCAR3 xenograft tumor; [4],10.19%
same,Tumor Volume (Day 28),"OVCAR3 xenograft tumor; day 28 after administration, oral once daily, Dorz 10 mg/kg, WX390 0.2 mg/kg, BYL719 25 mg/kg, vehicle 1582 mm^3",1437 ± 172 mm^3

# Reference: PMC12196043, “In Vivo PK-PD and Drug–Drug Interaction Study of Dorzagliatin for the Management of PI3Kα Inhibitor-Induced Hyperglycemia” (Pharmaceuticals, 2025)
